One assay addresses T1, His-SiaBb1 (Bifidobacterium bifidum, UniProt A0ABM7ET56).
T1 construct: gene BBBF_1779; His-tagged; native precursor 1,795 aa with Sec signal and C-terminal TM
Nature of the assay: fluorescence sialidase assay. It counts as biochemical. The settings on record: 50 μM recombinant protein, 30 min.

Assay [1] deals with T2, His-Sia (sialidase domain of SiaBb2, aa 187 to 553) (Bifidobacterium bifidum, UniProt A0A1Y1C8G4).
T2 construct: conserved sialidase domain aa 187-553 of 835 aa precursor; N-terminal 6xHis tag; recombinant; biotinylated for glycoarray, immobilized on CM5 chip for SPR; GH33
Nature of the assay: SPR, His-Sia immobilized on CM5 chip. The settings on record: HBS-EP pH 7.4, 25°C; binding decreased by 5 mM Neu5Ac2en; also glycoarray positive.

In the next assay the target is T3, His-SiaBb2 (Bifidobacterium bifidum, UniProt A0A1Y1C8G4).
T3 construct: gene sia2; N-terminal 6xHis tag; native precursor 835 aa with Sec signal and C-terminal TM
T3 sequence (A0A1Y1C8G4 37-810): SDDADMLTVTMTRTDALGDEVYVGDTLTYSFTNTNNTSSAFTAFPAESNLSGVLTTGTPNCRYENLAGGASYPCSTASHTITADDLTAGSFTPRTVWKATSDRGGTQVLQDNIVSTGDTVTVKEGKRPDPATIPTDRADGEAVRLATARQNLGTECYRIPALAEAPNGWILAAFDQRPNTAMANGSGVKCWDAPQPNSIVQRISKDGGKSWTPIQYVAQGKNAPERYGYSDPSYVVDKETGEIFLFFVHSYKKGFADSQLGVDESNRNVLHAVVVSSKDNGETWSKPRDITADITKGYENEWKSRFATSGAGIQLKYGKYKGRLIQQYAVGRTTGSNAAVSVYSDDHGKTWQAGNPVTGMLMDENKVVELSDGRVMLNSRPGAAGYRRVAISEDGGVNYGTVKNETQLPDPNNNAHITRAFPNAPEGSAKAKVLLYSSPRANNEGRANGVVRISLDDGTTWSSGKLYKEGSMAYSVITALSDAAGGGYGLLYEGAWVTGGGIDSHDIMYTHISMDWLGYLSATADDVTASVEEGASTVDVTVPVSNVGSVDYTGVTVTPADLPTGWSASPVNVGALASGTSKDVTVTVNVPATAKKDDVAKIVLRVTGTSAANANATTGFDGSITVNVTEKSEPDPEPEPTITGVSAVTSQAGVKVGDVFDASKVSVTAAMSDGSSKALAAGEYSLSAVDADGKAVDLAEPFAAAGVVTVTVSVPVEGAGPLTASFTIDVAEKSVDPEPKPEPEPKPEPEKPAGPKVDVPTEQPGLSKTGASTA
Nature of the assay: inhibition of sialidase activity, dose response. Type of assay: biochemical. The conditions noted are these: maximal inhibition at […].

Molecules are shown by their SMILES.

T1 sequence (A0ABM7ET56 40-1795 limits assumed): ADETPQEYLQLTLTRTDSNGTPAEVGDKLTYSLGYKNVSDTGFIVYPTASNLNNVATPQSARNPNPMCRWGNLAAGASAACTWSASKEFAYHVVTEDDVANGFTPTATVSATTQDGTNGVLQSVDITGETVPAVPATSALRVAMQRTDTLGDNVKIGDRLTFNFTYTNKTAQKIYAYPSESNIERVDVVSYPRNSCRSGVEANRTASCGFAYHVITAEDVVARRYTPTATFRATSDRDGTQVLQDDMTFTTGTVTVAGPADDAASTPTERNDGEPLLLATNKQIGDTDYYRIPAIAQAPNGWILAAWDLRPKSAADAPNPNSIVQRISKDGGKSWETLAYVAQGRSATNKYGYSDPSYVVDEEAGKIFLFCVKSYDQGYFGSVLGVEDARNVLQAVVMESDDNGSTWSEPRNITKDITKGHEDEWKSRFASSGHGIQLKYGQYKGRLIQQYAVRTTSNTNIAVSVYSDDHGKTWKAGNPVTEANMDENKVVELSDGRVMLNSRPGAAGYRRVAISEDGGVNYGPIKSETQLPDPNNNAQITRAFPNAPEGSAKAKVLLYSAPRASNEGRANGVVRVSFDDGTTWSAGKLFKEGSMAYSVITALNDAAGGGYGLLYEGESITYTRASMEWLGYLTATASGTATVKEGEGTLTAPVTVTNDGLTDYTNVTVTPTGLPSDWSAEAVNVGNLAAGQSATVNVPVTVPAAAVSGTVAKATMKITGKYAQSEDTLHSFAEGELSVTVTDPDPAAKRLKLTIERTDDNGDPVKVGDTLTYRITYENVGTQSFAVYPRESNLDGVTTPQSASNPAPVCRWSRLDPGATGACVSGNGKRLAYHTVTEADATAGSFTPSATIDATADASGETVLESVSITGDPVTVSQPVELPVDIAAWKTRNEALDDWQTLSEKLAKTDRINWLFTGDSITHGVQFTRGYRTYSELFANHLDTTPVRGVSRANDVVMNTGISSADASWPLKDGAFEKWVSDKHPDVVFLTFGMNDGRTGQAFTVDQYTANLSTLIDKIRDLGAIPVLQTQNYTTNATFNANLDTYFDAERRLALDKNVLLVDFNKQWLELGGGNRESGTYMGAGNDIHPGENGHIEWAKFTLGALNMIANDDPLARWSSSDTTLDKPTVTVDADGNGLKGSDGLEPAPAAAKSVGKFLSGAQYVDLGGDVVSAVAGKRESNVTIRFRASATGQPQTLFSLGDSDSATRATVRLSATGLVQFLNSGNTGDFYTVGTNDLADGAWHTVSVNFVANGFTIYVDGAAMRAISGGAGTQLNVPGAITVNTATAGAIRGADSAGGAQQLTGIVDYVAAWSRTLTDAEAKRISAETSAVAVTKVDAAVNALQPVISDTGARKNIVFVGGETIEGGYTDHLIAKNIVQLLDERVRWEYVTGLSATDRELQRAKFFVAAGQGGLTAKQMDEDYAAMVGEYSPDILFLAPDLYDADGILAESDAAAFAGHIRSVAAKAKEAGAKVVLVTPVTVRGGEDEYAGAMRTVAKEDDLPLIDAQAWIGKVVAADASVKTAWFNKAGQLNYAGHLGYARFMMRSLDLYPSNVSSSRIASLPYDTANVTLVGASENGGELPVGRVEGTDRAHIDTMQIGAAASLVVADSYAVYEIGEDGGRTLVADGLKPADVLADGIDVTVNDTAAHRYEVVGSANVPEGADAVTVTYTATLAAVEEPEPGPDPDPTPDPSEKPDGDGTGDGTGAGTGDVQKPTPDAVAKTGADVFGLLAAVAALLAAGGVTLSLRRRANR

For `CC(=O)N[C@H]1[C@H]([C@H](O)[C@H](O)CO)OC(Oc2ccc3c(C)cc(=O)oc3c2)(C(=O)O)C[C@@H]1O` (stereo partly drawn) [4-MU-Neu5Ac, 2′-(4-methylumbelliferyl)-α-D-N-acetylneuraminic acid], at His-SiaBb1, the fluorescence sialidase assay result is on record as “all sialidase peptides with the exception of His-ΔSia showed time-dependent enzymatic activity”.

For `CC(=O)N[C@H]1[C@H]([C@H](O)[C@H](O)CO)O[C@@](OC[C@H]2O[C@@H](O[C@H]3[C@H](O)[C@@H](O)C(O)O[C@@H]3CO)[C@H](O)[C@@H](O)[C@H]2O)(C(=O)O)C[C@@H]1O` (stereo partly drawn) [6'SL], the “MR at 10 μM (analyte/ligand, end of association)” value in assay [1] is reported as 1.3.

Consider `CC(=O)N[C@H]1[C@H]([C@H](O)[C@H](O)CO)OC(C(=O)O)=C[C@@H]1O` [Neu5Ac2en, N-acetyl-2,3-didehydro-2-deoxyneuraminic acid], for which, on His-SiaBb2, the “inhibition of sialidase activity, dose response” value is reported as “Neu5Ac2en treatment inhibited the sialidase activity of His-SiaBb2 in a dose-dependent manner”.

The record behind these values is publication PMC5626965, “Bifidobacterium bifidum Extracellular Sialidase Enhances Adhesion to the Mucosal Surface and Supports Carbohydrate Assimilation” (mBio, 2017).
